Entries after “also recorded” stand apart in the source; their conditions may differ. Where two headings read alike, the source gives them in different places.
Assays:
[1] = tested on: idiopathic PD; settings: in vivo, cited from earlier work
[2] = tested on: monoamine oxidase; settings: cited from earlier work
[3] = tested on: central dopamine neurons; settings: primates; cited from earlier work
[4] = tested on: dopamine nerve terminals; settings: mice; cited from earlier work
[5] = tested on: wild-type CHO cells; test: MTT cytotoxicity assay in wild-type CHO cells; format: cell-based, Chinese hamster; settings: CHO cells (FIG. 6b)
Experimental: (§1) Differential susceptibility to the respiratory complex I inhibitors MPP^+ and rotenone was shown by measuring toxicity by measuring general cell dehydrogenase activity with reduction of a tetrazolium dye (MTT) in a spectrophotometric plate assay as described by Hansen et al., J. Immunol. Methods 119:203-210 (1989). Briefly, a stock solution of MTT (3,(4,5-dimethylthiazol-2-yl)2,5-diphenyltetrazolium bromide) was dissolved at a concentration of 5 mg/ml in sterile phosphate buffered saline at room temperature. To each well was added 25 μl of the stock solution. After two hours of incubation at 37° C., 100 μl of extraction buffer (20% w/v of SDS in a solution of 50% each dimethylformamide and demineralized water with the pH adjusted to 4.7 with acetic acid and HCl). After an overnight incubation at 37° C., the optical densities at 570 nm were measured using a multiscanner, employing the extraction buffer as the blank. This assay was carried out in triplicate on 96-well plates (NUNC, Denmark). MPP^+ and rotenone at the concentrations indicated in FIG. 6a and 6b, respectively, was added to wild-type and MPP^+ -resistant CHO cells at approximately 50% confluence, and toxicity was assayed after 2-3 days by measuring general cell dehydrogenase activity with the reduction of the tetrazolium dye MTT (3,(4,5-dimethylthiazol-2-yl)2,5-diphenyl-tetrazolium bromide). After addition of the dye at a final concentration of 1 mg/ml, the cells were incubated for two hours at 37° C. and the formazan product was solubilized in 10% sodium dodecyl sulfate (SDS). The plates were maintained at 37° C. for an additional twenty hours and the optical density was determined in an ELISA plate reader at a test wavelength of 570 nm, a reference wavelength of 630 nm and a calibration setting of 1.99. All determinations were performed in triplicate and expressed as the mean, with the error bars representing standard deviation (FIG. 6a and 6b).

[6] = tested on: MPP^+ -resistant CHO cells; test: MTT cytotoxicity assay in MPP+-resistant transfected CHO cells; format: cell-based, Chinese hamster
Experimental: as §1
To determine whether an alteration in the process of respiration was responsible for the resistance to MPP^+, the effects of other known respiratory inhibitors were examined. […] Thus, if the resistance were due to a change in the site of action, the transfected cells should also show resistance to rotenone. […] However, rotenone is considered to have its selected effect on respiration at relatively low doses, and an additional, less specific effect at higher doses.
Therefore, the toxicity of MPP^+ to transfected cells in the presence of 1 μM reserpine was examined.

[7] = tested on: respiratory complex I; settings: cited from earlier work
[8] = tested on: complex III of the respiratory chain; settings: cited from earlier work
[9] = target: T1, chromaffin granule amine transport protein (Rattus norvegicus, UniProt Q01818); test: cell-based; format: cell-based; settings: for inhibition of vesicular amine uptake/transport (fluorescence assay, in words): concentrations of Table 1
T1 sequence (Q01818 1-521): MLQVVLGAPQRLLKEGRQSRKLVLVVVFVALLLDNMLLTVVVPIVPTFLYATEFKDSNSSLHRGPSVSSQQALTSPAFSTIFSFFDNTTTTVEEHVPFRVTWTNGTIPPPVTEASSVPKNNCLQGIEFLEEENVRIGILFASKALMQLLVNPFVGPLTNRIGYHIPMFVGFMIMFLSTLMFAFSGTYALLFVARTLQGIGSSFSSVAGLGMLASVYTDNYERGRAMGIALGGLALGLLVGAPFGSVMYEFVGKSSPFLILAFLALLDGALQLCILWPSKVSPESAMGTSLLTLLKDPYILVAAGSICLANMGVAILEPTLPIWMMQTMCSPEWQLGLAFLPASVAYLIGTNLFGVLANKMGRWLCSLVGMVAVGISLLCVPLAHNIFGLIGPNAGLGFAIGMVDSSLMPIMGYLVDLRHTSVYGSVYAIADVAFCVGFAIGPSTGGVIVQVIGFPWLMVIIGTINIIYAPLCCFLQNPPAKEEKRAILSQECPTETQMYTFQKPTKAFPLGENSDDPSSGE
Experimental: Uptake and cellular compartmentalization of loaded dopamine were performed by growing cells on poly-lysine-coated glass coverslips. […] The cells were then washed three times in 0.1M sodium phosphate, pH 7.4, and incubated at 4° C. in 2% glyoxylic acid/0.5 mg% MgCl2, pH 4.9-5.0 for three minutes as described by de la Torre, J. Neurosci. Meth. 3:1-5 (1980). Briefly, excess solution is wiped off the bottom and edges of the slide using absorbent paper, taking care not to touch the section. The coverslips were then drained thoroughly, dried in air at 45° C. heated to 80° C. for five minutes, inverted over mineral oil on glass slides and examined under fluorescence using the appropriate filters as described by Knigge et al., Brain Res. 120:393-405 (1977). Briefly, the preparations were infiltrated with warm immersion oil and examined in a Leitz MPV2 microspectrofluorometer equipped with Schoffel excitation and emission grating monochromators, photomultipliers, and ratio computing circuitry. Cells were scanned with either monochromatic light (370 nm) or narrow band excitation (S405, BG3) light for the purpose of identifying fluorescence within cells. Ploem illumination was used in combination with a X 63 or X 100 oil immersion objective.
Dopamine-loaded fluorescence was carried out as described in Example 1. […] Glyoxylic-acid-induced fluorescence was used to determine the intracellular distribution as described above in Example 1. The procedures were the same as described in Example 1 however a pure cDNA clone encoding the vesicle membrane transport protein, selected in the presence of MPP^+, obtained as described herein, was used rather than the primary transformant. […]
The effects of various pharmacologic agents were tested to determine whether the properties of the protein encoded by the mpp^res cDNA corresponded with those expected for the chromaffin granule amine transport protein. […] The cells were pre-incubated in Krebs-Ringer buffer containing 1 μM pargyline and the dose of the drug indicated for 15 minutes. 25 nM [^3 H]-dopamine was then added in the same buffer and after incubation at 37° C. for one hour, the cells were washed in cold Krebs-Ringer buffer, lysed and counted in Ecolite (ICN) as described by Greene and Rein, Brain Res. 129:247-263 (1978). Values were determined from three separate wells and the mean was expressed as percent of control uptake±standard deviation. […] The dose required to inhibit maximal uptake by 50%, Ki, was estimated from the fluorescence data using a range of concentrations for each agent.

[10] = target: T1, chromaffin granule amine transport protein; test: Quantitative [3H]dopamine transport assay with mpp^res CHO cell homogenate; format: biochemical; settings: dose-response, 2-minute incubation (FIG. 15C)
Experimental: The quantity of label bound is measured after filtration of the assay mixture. Preferably, the label is a radioactive label. […] This can be done by standard graphic kinetic techniques such as the Lineweaver-Burke plot.
Incubation was performed at 29° C. for the time period indicated (from 2 minutes to 30 minutes). The assay was terminated by dilution in cold assay buffer followed by filtration through 0.2 μm Supor™ 200 membranes (Gelman, Ann Arbor, Mich.) and the bound radioactivity was measured. The cells used for the quantitative assay are selected in MPP^+ or screened with antibody to ensure that they express the transporter at high levels, as it is difficult to measure activity in this assay at low levels of transporter expression.
The quantitative transport test was performed as described above on wild-type CHO cells and mpp^res CHO cells.

[11] = tested on: PC12 cells; test: cells; settings: Rattus norvegicus, PC-12, 1 h, read-out: [^3 H]-Dopamine Uptake (PC12)
Experimental: (§2) The effects of various pharmacologic agents were tested to determine whether the properties of the protein encoded by the mpp^res cDNA corresponded with those expected for the chromaffin granule amine transport protein. […] The cells were pre-incubated in Krebs-Ringer buffer containing 1 μM pargyline and the dose of the drug indicated for 15 minutes. […] Values were determined from three separate wells and the mean was expressed as percent of control uptake±standard deviation.

[12] = tested on: vesicular amine transport protein; settings: cited from earlier work
[13] = tested on: amine stores; settings: in vivo; cited from earlier work
[14] = tested on: chromaffin cells; settings: co-incubation with MPP+; cited from earlier work
[15] = tested on: PC12 cells; settings: percent of control uptake ± SD; agent 10 mM; 25 nM [3H]-dopamine, 1 h, 37° C.
Experimental: as §2

[16] = tested on: plasma membrane monoamine transport activity; settings: cited from earlier work
[17] = tested on: midbrain cells; settings: in vitro; cited from earlier work

## C#CCN(C)C(C)Cc1ccccc1 (stereo not shown) [deprenyl]
[1]
  rate of progression of Parkinson's disease: slow the rate of progression of the disease
[1]; listed as Deprenyl
  rate of progression of Parkinson's disease: appears to slow the rate of progression
[2]
  inhibition of monoamine oxidase: inhibits the enzyme that activates MPTP, monoamine oxidase

## CN1CC=C(c2ccccc2)CC1 [1-methyl-4-phenyl-1,2,3,6-tetrahydropyridine]
[3]
  damage to central dopamine neurons: Damage to central dopamine neurons
[4]
  damage to dopamine nerve terminals: dopamine nerve terminals in mice

## C=C(C)[C@H]1Cc2c(ccc3c2O[C@@H]2COc4cc(OC)c(OC)cc4[C@@H]2C3=O)O1 [rotenone]
[5]
  rotenone toxicity pattern (MTT assay): biphasic pattern
[6]; vs wild-type
  resistance of the transfectant to rotenone: no substantial resistance
[7]
  inhibition of respiratory complex I: inhibits complex I

## oligomycin
[6]; wild-type vs resistant transfected CHO cells
  oligomycin toxicity pattern: same pattern of toxicity in wild-type and in resistant transfected CHO cells
[8]
  inhibition of respiratory complex III: inhibits complex III

## COc1cc2c(cc1OC)C1CC(=O)C(CC(C)C)CN1CC2 (stereo not shown) [tetrabenazine]
[9]
  inhibition of vesicular amine uptake/transport (fluorescence assay, in words): inhibited transport, but at high concentrations
[9]; dose required to inhibit maximal uptake by 50%, estimated from fluorescence data, read-out: Ki (est)
  Ki: 100 µM
[10]
  inhibition of dopamine transport: inhibition by both reserpine and tetrabenazine
[11]
  activity at 100 µM: 45 ± 2%
[12]
  inhibition of vesicular amine transport: an inhibitor of vesicular uptake; also recorded: inhibit this transport activity
[13]
  potency to deplete central rather than adrenal amine stores: greater potency of that drug to deplete central rather than adrenal amine stores
[14]
  effect on MPP+ toxicity to chromaffin cells: chromaffin cell toxicity was potentiated

## Cl.N [NH4 Cl, ammonium chloride]
[9]
  inhibition of vesicular amine uptake/transport (fluorescence assay, in words): inhibited uptake only partially
[15]
  [^3 H]-Dopamine Uptake (PC12): 51 ± 3%

## COC(=O)[C@H]1[C@@H](OC(=O)c2ccccc2)C[C@@H]2CC[C@H]1N2C [cocaine]
[10]
  inhibition of dopamine transport: no inhibition
[16]
  inhibition of plasma membrane monoamine transport: inhibiting this activity

B1: brain-derived neurotrophic factor (BDNF): neurotrophic factors such as brain-derived neurotrophic factor (BDNF) (protein, UniProt P23560 19-247, looked up)
Neurotrophic factor BDNF …: APMKEANIRGQGGLAYPGVRTHGTLESVNGPKAGSRGLTSLADTFEHVIEELLDEDQKVRPNEENNKDADLYTSRVMLSSQVPLEPPLLFLLEEYKNYLDAANMSMRVRRHSDPARRGELSVCDSISEWVTAADKKTAVDMSGGTVTVLEKVPVSKGQLKQYFYETKCNPMGYTKEGCRGIDKRHWNSQCRTTQSYVRALTMDSKKRIGWRFIRIDTSCVCTLTIKRGR
[17]
  protection of midbrain cells from MPP+: can protect midbrain cells from MPP^+ in vitro
